Tests used:
[1] = tested on: subjects undergoing cataract extraction with lens replacement (CELR); experiment: Phase 2 treatment-emergent ocular adverse events (study eye, non-study eye, either eye); details: for Eye disorders, % / General disorders and administration site conditions, % / Infections and infestations, % / Injury, poisoning and procedural complications, % / Investigations, %: system organ class
Description: (§1) The Phase 2 study was factorial-designed, randomized, double-blind, placebo-controlled, and included parallel-cohorts. […] Primary efficacy endpoints included appropriate sedation during the cataract surgery and management of intraoperative pain during the surgery.
The study eye (TABLE 31) non-study eye (TABLE 32), or either eye (TABLE 33) was assessed. TEAES were defined as events that started on or after the date of the study drug administration through the end of Visit 4 or early withdrawal. Subjects with one or more adverse event within a level of Medical Dictionary for Regulatory Activities (MedDRA) were counted only once in that level.

[2] = tested on: subjects undergoing cataract extraction with lens replacement (CELR); experiment: Phase 2 subjects requiring rescue analgesic medication; assay type: in vivo, human; details: Visit 2 (Day 1); Full Analysis Set
Description: (§2) The number of subjects achieving analgesia response (observed) in the full analysis set was determined. Success in analgesia response was defined as NPRS <4 at the available at the available four intraoperative timepoints and a failure otherwise (e.g., any interoperative pain rescue was assumed to be a failure. Results are provided in TABLE 24. The number of subjects completing the surgery is provided in TABLE 25, and the number of subjects completing the surgery without interruption is provided in TABLE 26. For this measure, subjects completing the surgery without interruption (other than rescue medication) due to pain or anxiety were considered successes. The number of subjects requiring rescue sedative medication and those requiring analgesic medication are provided in TABLES 27 and 28, respectively. For all TABLES 24-28, p-Values between pairs of treatments were calculated and are provided.

[3] = tested on: subjects undergoing cataract extraction with lens replacement (CELR); experiment: Phase 2 subjects requiring rescue sedative medication; assay type: in vivo, human; details: Visit 2 (Day 1)
Description: as §2

[4] = tested on: subjects undergoing cataract extraction with lens replacement (CELR); experiment: Phase 2 mean intraoperative analgesia by the numeric pain rating scale; assay type: in vivo, human
Description: An average of the available timepoints was also calculated.

[5] = tested on: subjects undergoing cataract extraction with lens replacement (CELR); experiment: Phase 2 subject-rated worst pain during surgery by the numeric pain rating scale; assay type: in vivo, human; details: carry forward
[6] = tested on: subjects undergoing cataract extraction with lens replacement (CELR); experiment: Phase 2 subjects achieving procedural sedation (RSS 2 or 3 without rescue); assay type: in vivo, human; details: Visit 2 (Day 1), Full Analysis Set
Description: A Phase 2 efficacy and safety study of the MELT-300 formulation was conducted at nine sites with over 300 enrolled subjects. MELT-300 is a sublingual, needle- and opioid-free formulation for procedural sedation during cataract surgery. […] MELT-300 utilizes fast-dissolving delivery technology (Zydis®, Catalent Inc.) to rapidly dissolve the tablet for absorption across the sublingual mucosa.
as §1
Achievement of procedural sedation was evaluated for each subject (see TABLE 19). Success for procedural sedation for this Phase 2 study was defined as achieving target sedation level (Ramsay Sedation Scale (RSS) scale level 2 or 3) at the start of surgery without the need for rescue sedation medication, and no need for intraoperative rescue sedation medication to maintain target sedation level.

[7] = tested on: subjects undergoing cataract extraction with lens replacement (CELR); experiment: Phase 2 subjects completing the surgery; assay type: in vivo, human; details: Visit 2 (Day 1); Full Analysis Set
Description: as §2

[8] = tested on: subjects undergoing cataract extraction with lens replacement (CELR); experiment: Phase 2 subjects completing the surgery without interruption; assay type: in vivo, human; details: Visit 2 (Day 1); Full Analysis Set
Description: as §2

[9] = tested on: subjects undergoing cataract extraction with lens replacement (CELR); experiment: Phase 2 subjects achieving analgesia response (NPRS <4); assay type: in vivo, human; details: Visit 2 (Day 1), observed
Description: as §2

[10] = tested on: subjects undergoing cataract extraction with lens replacement (CELR); experiment: Phase 2 subjects wanting study drug again for a second surgery (11-point Likert scale); assay type: in vivo, human
Source text: Post-operation, subjects were asked whether they would want the study drug again for a second surgery using an 11-point Likert scale of 0 (not likely at all) to 10 (extremely likely).

[11] = tested on: subjects undergoing cataract extraction with lens replacement (CELR); experiment: Phase 2 subjects receiving opioid concomitant medication postoperatively; assay type: in vivo, human
[12] = Average of available timepoints, adjusted for site table, carry forward
[13] = Average of available timepoints, carry forward
[14] = Average of available timepoints, observed
[15] = Corneal incision, adjusted for site table, carry forward
[16] = Corneal incision, carry forward
[17] = Insertion of the phacoemulsion probe, adjusted for site table, carry forward
[18] = Insertion of the phacoemulsion probe, carry forward
[19] = Insertion of the phacoemulsion probe, observed
[20] = Insertion of the speculum, adjusted for site table, carry forward
[21] = Insertion of the speculum, carry forward
[22] = Insertion of the speculum, observed
[23] = Insertion of the synthetic replacement lens, adjusted for site table, carry forward
[24] = Insertion of the synthetic replacement lens, carry forward
[25] = Insertion of the synthetic replacement lens, observed
[26] = 11-point Likert scale 0 (not likely at all) to 10 (extremely likely)

`CNC1(c2ccccc2Cl)CCCCC1=O` (stereo not drawn) [Ketamine 50 mg] was tested, and the “Cataract operation complication, %” value ([1]; Either Eye) was “(0) %”, the “Conjunctivitis bacterial, %” value ([1]; Either Eye) was “(1.2) %” and the “Corneal abrasion, %” value ([1]; Either Eye) was “(0) %”. For the same compound, the “Corneal oedema, %” value ([1]; Either Eye) was “(1.2) %”, the “Endophthalmitis, %” value ([1]; Either Eye) was “(1.2) %” and the “Eye pain, %” value ([1]; Either Eye) was “(3.5) %”. The “Foreign body sensation in eyes, %” value ([1]; Either Eye) was “(0) %”, the “Intraocular pressure increased, %” value ([1]; Either Eye) was “(1.2) %” and the “Ocular hypertension, %” value ([1]; Either Eye) was “(1.2) %”. The “Pain, %” value ([1]; Either Eye) was “(0) %”, the “Paracentesis eye, %” value ([1]; Either Eye) was “(0) %” and the “Procedural pain, %” value ([1]; Either Eye) was “(0) %”. For the same compound, the “Subjects with Any Treatment-Emergent Ocular AEs, %” value ([1]; Either Eye) was “(8.2) %”, the “Vision blurred, %” value ([1]; Either Eye) was “(0) %” and the “Eye disorders, %” value ([1]; Either Eye) was “(5.9) %”. For the same compound, the “General disorders and administration site conditions, %” value ([1]; Either Eye) was “(0) %”, the “Infections and infestations, %” value ([1]; Either Eye) was “(2.4) %” and the “Injury, poisoning and procedural complications, %” value ([1]; Either Eye) was “(0) %”. For the same compound, the “Investigations, %” value ([1]; Either Eye) was “(1.2) %”, the “Conjunctivitis bacterial, %” value ([1]; Non-Study Eye) was “(1.2) %” and the “Eye pain, %” value ([1]; Non-Study Eye) was “(0) %”. The “Subjects with Any Treatment-Emergent Ocular AEs, %” value ([1]; Non-Study Eye) was “(1.2) %”, the “Vision blurred, %” value ([1]; Non-Study Eye) was “(0) %” and the “Eye disorders, %” value ([1]; Non-Study Eye) was “(0) %”. The “Infections and infestations, %” value ([1]; Non-Study Eye) was “(1.2) %”, the “Cataract operation complication, %” value ([1]; Study Eye) was “(0) %” and the “Corneal abrasion, %” value ([1]; Study Eye) was “(0) %”. For the same compound, the “Corneal oedema, %” value ([1]; Study Eye) was “(1.2) %”, the “Endophthalmitis, %” value ([1]; Study Eye) was “(1.2) %” and the “Eye pain, %” value ([1]; Study Eye) was “(3.5) %”. The “Foreign body sensation in eyes, %” value ([1]; Study Eye) was “(0) %”, the “Intraocular pressure increased, %” value ([1]; Study Eye) was “(1.2) %” and the “Ocular hypertension, %” value ([1]; Study Eye) was “(1.2) %”. For the same compound, the “Pain, %” value ([1]; Study Eye) was “(0) %”, the “Procedural pain, %” value ([1]; Study Eye) was “(0) %” and the “Subjects with Any Treatment-Emergent Ocular AEs, %” value ([1]; Study Eye) was “(7.1) %”. For the same compound, the “Eye disorders, %” value ([1]; Study Eye) was “(5.9) %”, the “General disorders and administration site conditions, %” value ([1]; Study Eye) was “(0) %” and the “Infections and infestations, %” value ([1]; Study Eye) was “(1.2) %”. The “Injury, poisoning and procedural complications, %” value ([1]; Study Eye) was “(0) %”, the “Investigations, %” value ([1]; Study Eye) was “(1.2) %” and the “Paracentesis eye, %” value ([1]; printed in the Non-Study Eye table) was “(0) %”. For the same compound, the “Subjects requiring rescue analgesic medication: No, %” value [2] was “(59.5) %”, the “Subjects requiring rescue analgesic medication: Yes, %” value [2] was “(40.5) %” and the “Subjects requiring rescue sedative medication: No, %” value ([3]; Full Analysis Set) was “(63.3) %”. The “Subjects requiring rescue sedative medication: Yes, %” value ([3]; Full Analysis Set) was “(36.7) %”, the “Subjects requiring rescue sedative medication: Intraoperatively, %” value ([3]; Intraoperatively) was “(6.3) %” and the “Subjects requiring rescue sedative medication: Pre-operatively, %” value ([3]; Pre-operatively) was “(30.4) %”. For the same compound, the “Intraoperative NPRS, LS Mean” value ([4]; Average of available timepoints, adjusted for site (study center covariate), carry forward) was 1.89, the “Intraoperative NPRS, mean” value [4, 12] was 2.16 and the “Intraoperative NPRS, median” value [4, 12] was 1.75. For the same compound, the “Intraoperative NPRS, mean” value [4, 13] was 2.16, the “Intraoperative NPRS, median” value [4, 13] was 1.75 and the “Intraoperative NPRS, LS Mean” value ([4]; Average of available timepoints, carry forward, repeated measures model) was 2.16. For the same compound, the “Intraoperative NPRS, mean” value [4, 14] was 2.00, the “Intraoperative NPRS, median” value [4, 14] was 1.75 and the “Intraoperative NPRS, LS Mean” value ([4]; Average of available timepoints, observed, repeated measures model) was 2.22. For the same compound, the “Intraoperative NPRS, mean” value [4, 15] was 1.8, the “Intraoperative NPRS, median” value [4, 15] was 1.0 and the “Intraoperative NPRS, mean” value [4, 16] was 1.8. For the same compound, the “Intraoperative NPRS, median” value [4, 16] was 1.0, the “Intraoperative NPRS, mean” value ([4]; Corneal incision, observed) was 1.7 and the “Intraoperative NPRS, median” value ([4]; Corneal incision, observed) was 1.0. For the same compound, the “Intraoperative NPRS, mean” value [4, 17] was 2.5, the “Intraoperative NPRS, median” value [4, 17] was 2.0 and the “Intraoperative NPRS, mean” value [4, 18] was 2.5. The “Intraoperative NPRS, median” value [4, 18] was 2.0, the “Intraoperative NPRS, mean” value [4, 19] was 2.1 and the “Intraoperative NPRS, median” value [4, 19] was 2.0. The “Intraoperative NPRS, mean” value [4, 20] was 1.1, the “Intraoperative NPRS, median” value [4, 20] was 1.0 and the “Intraoperative NPRS, mean” value [4, 21] was 1.1. For the same compound, the “Intraoperative NPRS, median” value [4, 21] was 1.0, the “Intraoperative NPRS, mean” value [4, 22] was 1.1 and the “Intraoperative NPRS, median” value [4, 22] was 1.0. For the same compound, the “Intraoperative NPRS, mean” value [4, 23] was 3.3, the “Intraoperative NPRS, median” value [4, 23] was 3.0 and the “Intraoperative NPRS, mean” value [4, 24] was 3.3. The “Intraoperative NPRS, median” value [4, 24] was 3.0, the “Intraoperative NPRS, mean” value [4, 25] was 2.5 and the “Intraoperative NPRS, median” value [4, 25] was 2.0. For the same compound, the “Intraoperative NPRS, LS Mean Difference versus placebo” value ([4]; adjusted for site, carry forward) was −0.30, the “Intraoperative NPRS, LS Mean Difference versus placebo” value ([4]; carry forward, repeated measures model) was −0.32 and the “Intraoperative NPRS, LS Mean Difference versus placebo” value ([4]; observed, repeated measures model) was −0.26. For the same compound, the “Worst Pain During Surgery, Mean Difference versus placebo” value [5] was −0.33, the “Worst Pain During Surgery (NPRS), mean” value ([5]; Full Analysis Set) was 3.7 and the “Worst Pain During Surgery (NPRS), median” value ([5]; Full Analysis Set) was 4.0. The “Subjects achieving procedural sedation: No, %” value [6] was 36.7%, the “Subjects achieving procedural sedation: Yes, %” value ([6]; RSS 2 or 3 without rescue sedation) was 63.3% and the “Subjects completing the surgery: No, %” value [7] was 0 (0) %. For the same compound, the “Subjects completing the surgery: Yes, %” value [7] was 100.0%, the “Subjects completing the surgery without interruption: No, %” value [8] was “(6.3) %” and the “Subjects completing the surgery without interruption: Yes, %” value [8] was “(93.7) %”. The “Subjects achieving analgesia response: Yes, %” value ([9]; NPRS <4 at four intraoperative timepoints) was 49.4%, the “Subjects achieving analgesia response: No, %” value [9] was 50.6% and the “Want Study Drug Again, mean” value [10, 26] was 7.6. For the same compound, the “Want Study Drug Again, median” value [10, 26] was 10.0, the “Want Study Drug Again, Mean Difference versus placebo” value ([10]; unpaired t-test) was −0.05 and the “Received Postoperative Opioid on Day 2: No, %” value ([11]; Day 2) was “(100.0) %”. For the same compound, the “Received Postoperative Opioid on Day 2: Yes, %” value ([11]; Day 2) was “(0.0) %”, the “Received Postoperative Opioid on Day 2-8: No, %” value ([11]; Day 2-8) was “(100.0) %” and the “Received Postoperative Opioid on Day 2-8: Yes, %” value ([11]; Day 2-8) was “(0.0) %”.

From patent US20240207285A1 (Melt Pharmaceuticals, Inc., priority 2022, published 2024)
